Assay: Oral bioavailability in human
Format: ADME, organism-based
Settings: in vivo

| bioavailability | SMILES |
| --- | --- |
| 80% | CCOC(=O)C1=C[C@@H](OC(CC)CC)[C@H](NC(C)=O)[C@@H](N)C1 [OSELTAMIVIR] |
| 5% | CCC(CC)O[C@@H]1C=C(C(=O)O)C[C@H](N)[C@H]1NC(C)=O [OSELTAMIVIR CARBOXYLATE] |

From ChEMBL document CHEMBL4007385, “Prodrug approach: An overview of recent cases” (Eur J Med Chem, 2017)
